The text below walks through data of paper PMC2680092 (Journal of molecular biology, 2008).

For this assay, the target named is DEN MTase (Dengue virus type 2, UniProt P29990). Kind of assay: GTP-Bodipy displacement. Type of assay: binding. The following applies: for Fold Affinity Reduction: Ki relative to GTP.
Where [1] appears, read: 10 nM GTP-Bodipy, 500 nM DEN MTase.

Molecules are shown by their SMILES. Read-outs that look alike come from different tables or passages of the source.

DEN MTase, sequence (P29990 2493-2755 limits assumed): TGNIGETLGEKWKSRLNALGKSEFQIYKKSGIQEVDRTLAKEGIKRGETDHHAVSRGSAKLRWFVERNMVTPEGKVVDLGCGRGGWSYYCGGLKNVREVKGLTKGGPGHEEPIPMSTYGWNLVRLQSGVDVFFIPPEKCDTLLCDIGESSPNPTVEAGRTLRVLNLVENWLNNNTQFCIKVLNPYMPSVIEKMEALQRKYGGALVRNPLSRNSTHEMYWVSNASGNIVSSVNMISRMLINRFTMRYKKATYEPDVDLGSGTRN

As to `Nc1ncnc2c1ncn2[C@@H]1O[C@H](COP(=O)(O)OP(=O)(O)OP(=O)(O)O)[C@@H](O)[C@H]1O` [ATP, Adenosine triphosphate], affinity was put at a Ki of 350000 nM and the “Fold Affinity Reduction” value turned out to be 8750. Take `O=c1[nH]cnc2c1ncn2[C@@H]1O[C@H](COP(=O)(O)OP(=O)(O)OP(=O)(O)O)[C@@H](O)[C@H]1O` [ITP, Inosine triphosphate]: the “Fold Affinity Reduction” value was determined as 3. Moreover, the affinity under setting [1] corresponds to a Ki of 120 nM. As to `CSc1nc(N)nc2c1ncn2C1OC(COP(=O)(O)OP(=O)(O)OP(=O)(O)O)C(O)C1O` (centres unmarked) [6-methylthio GTP, 6-methylthio-GTP], under setting [1], affinity was put at a Ki of 230 nM.

For `Nc1nc2c(ncn2[C@@H]2O[C@H](COP(=O)(O)OP(=O)(O)O)[C@@H](O)[C@H]2O)c(=O)[nH]1` [GDP], the “Fold Affinity Reduction” value turned out to be 3. For the same molecule, the Ki (usually the dissociation constant of the complex between target and ligand, obtained from inhibition or displacement) under setting [1] turned out to be 100 nM. `Nc1nc2c(ncn2[C@@H]2O[C@H](COP(=O)(O)O)[C@@H](O)[C@H]2O)c(=O)[nH]1` [GMP] came in with a Ki under setting [1] of 950 nM.

In turn, `Cn1c[n+]([C@@H]2O[C@H](COP(=O)(O)OP(=O)(O)OP(=O)(O)OC[C@H]3O[C@@H](n4cnc5c(N)ncnc54)[C@H](O)[C@@H]3O)[C@@H](O)[C@H]2O)c2nc(N)[nH]c(=O)c21` [^7meGpppA] gave an inhibition constant (Ki) under setting [1] of 170 nM. Against the preceding molecule, the Ki is about 5.6-fold lower. For the molecule `Nc1nc2c(ncn2[C@@H]2O[C@H](CO)[C@@H](O)[C@H]2O)c(=O)[nH]1` [Guanosine, guanosine], the Ki was found to be 260000 nM and the “Fold Affinity Reduction” value came to 6400. On to `Nc1nc2c(ncn2[C@H]2C[C@H](O)[C@@H](COP(=O)(O)OP(=O)(O)OP(=O)(O)O)O2)c(=O)[nH]1` [dGTP], for which the “Fold Affinity Reduction” value was found to be 15. Under setting [1], this molecule had a Ki of 610 nM. For the molecule `O=c1[nH]c(=O)c2ncn([C@@H]3O[C@H](COP(=O)(O)OP(=O)(O)OP(=O)(O)O)[C@@H](O)[C@H]3O)c2[nH]1` [XTP, xanthine triphosphate], the “Fold Affinity Reduction” value came out at 12. Affinity under setting [1] was put at a Ki of 480 nM. As to `Nc1nc2c(ncn2[C@@H]2O[C@H](COP(=O)(O)OP(=O)(O)OP(=O)(O)O)[C@@H](O)[C@H]2O)c(=O)[nH]1` [GTP, guanosine triphosphate], the inhibitory constant (Ki) amounted to 40 nM and the “Fold Affinity Reduction” value is 0.

For the molecule `Nc1nc2c(ncn2[C@H]2CC[C@@H](COP(=O)(O)OP(=O)(O)OP(=O)(O)O)O2)c(=O)[nH]1` [ddGTP], the “Fold Affinity Reduction” value is 19. Besides, the affinity under setting [1], expressed as Ki, was 770 nM. Regarding `Cn1c[n+]([C@@H]2O[C@H](COP(=O)(O)OP(=O)(O)OP(=O)(O)OC[C@H]3O[C@@H](n4cnc5c(=O)[nH]c(N)nc54)[C@H](O)[C@@H]3O)[C@@H](O)[C@H]2O)c2nc(N)[nH]c(=O)c21` [^7meGpppG], the inhibition constant Ki under setting [1] was 100 nM.
